Source: patent US20080207573A1, “COMPOUNDS FOR TREATING VIRAL INFECTIONS” (priority 2006, published 2008)

What follows are molecules tested on HIV-1 laboratory strain, NL4-3 (assay: MT-4 Cytoprotection Assay (protection from HIV-induced cytopathic effect, WST-1 readout)). Settings: Human immunodeficiency virus 1, NL43; list of representative compounds; read-out: EC50 of less than about 100 nm (representative compounds).
Type: cell-based
Procedure: MT-4 Cytoprotection Assay
The HTLV-1 transformed T cell line, MT-4, is highly susceptible to HIV-1 infection. Anti-HIV-1 agents were evaluated in this target cell line by protection from the HIV-induced cytopathic effect. In this assay, viability of both HIV-1 and mock-infected cells was assessed in a […] assay that monitors the ability of metabolically-active cells to reduce the tetrazolium salt WST-1. Cytoprotection by antiviral compounds is indicated by the positive readout of increased WST-1 cleavage.
Briefly, exponentially growing MT-4 cells were mock-infected or batch-infected with the HIV-1 laboratory strain, NL4-3, at a multiplicity of infection of 0.0005. Following a two hour infection, the cells were washed to remove unbound virus and plated in the presence of increasing concentrations of compound. After four days incubation, cytoprotection in the infected cells and compound toxicity in mock-infected cells were analyzed using the WST-1 assay.

Question: `C=C(C)[C@@H]1CC[C@]2(C(=O)NCc3ccc(OC)cc3)CC[C@]3(C)[C@H](CC[C@@H]4[C@@]5(C)CC[C@H](OC(=O)CC(C)(C)C(=O)O)C(C)(C)[C@@H]5CC[C@]43C)[C@@H]12` [Compound 69] was tested. Which EC50 did it give?
Answer: Its EC50 is less than 100 nM.

Question: For `C=C(C)[C@@H]1CC[C@]2(C(=O)NCc3ccco3)CC[C@]3(C)[C@H](CC[C@@H]4[C@@]5(C)CC[C@H](OC(=O)CC(C)(C)C(=O)O)C(C)(C)[C@@H]5CC[C@]43C)[C@@H]12` [Compound 74], which EC50 is on record?
Answer: Its EC50 is less than 100 nM.

Question: Which EC50 does the source give for `C=C(C)[C@@H]1CC[C@]2(C(=O)NCc3ccncc3)CC[C@]3(C)[C@H](CC[C@@H]4[C@@]5(C)CC[C@H](OC(=O)CC(C)(C)C(=O)O)C(C)(C)[C@@H]5CC[C@]43C)[C@@H]12` [Compound 75] here?
Answer: The EC50 was less than 100 nM.

Question: For `C=C(C)[C@@H]1CC[C@]2(C(=O)Nc3ccc(OC)cc3)CC[C@]3(C)[C@H](CC[C@@H]4[C@@]5(C)CC[C@H](OC(=O)CC(C)(C)C(=O)O)C(C)(C)[C@@H]5CC[C@]43C)[C@@H]12` [Compound 77], which EC50 is on record?
Answer: The EC50 was less than 100 nM.

Question: For `C=C(C)[C@@H]1CC[C@]2(C(=O)NCc3ccccc3OC)CC[C@]3(C)[C@H](CC[C@@H]4[C@@]5(C)CC[C@H](OC(=O)CC(C)(C)C(=O)O)C(C)(C)[C@@H]5CC[C@]43C)[C@@H]12` [Compound 78], which EC50 is on record?
Answer: The EC50 was less than 100 nM.

Question: Which EC50 does the source give for `C=C(C)[C@@H]1CC[C@]2(C(=O)NCc3cccc(OC)c3)CC[C@]3(C)[C@H](CC[C@@H]4[C@@]5(C)CC[C@H](OC(=O)CC(C)(C)C(=O)O)C(C)(C)[C@@H]5CC[C@]43C)[C@@H]12` [Compound 79] here?
Answer: Its EC50 is less than 100 nM.

Question: How did the EC50 turn out when `C=C(C)[C@@H]1CC[C@]2(C(=O)NCc3ccc(Cl)cc3)CC[C@]3(C)[C@H](CC[C@@H]4[C@@]5(C)CC[C@H](OC(=O)CC(C)(C)C(=O)O)C(C)(C)[C@@H]5CC[C@]43C)[C@@H]12` [Compound 80] was run?
Answer: Its EC50 is less than 100 nM.

Question: How did the EC50 turn out when `C=C(C)[C@@H]1CC[C@]2(C(=O)N[C@H](C)c3ccc(OC)cc3)CC[C@]3(C)[C@H](CC[C@@H]4[C@@]5(C)CC[C@H](OC(=O)CC(C)(C)C(=O)O)C(C)(C)[C@@H]5CC[C@]43C)[C@@H]12` [Compound 81] was run?
Answer: Its EC50 is less than 100 nM.

Question: Which EC50 does the source give for `C=C(C)[C@@H]1CC[C@]2(C(=O)NCc3ccc4c(c3)OCO4)CC[C@]3(C)[C@H](CC[C@@H]4[C@@]5(C)CC[C@H](OC(=O)CC(C)(C)C(=O)O)C(C)(C)[C@@H]5CC[C@]43C)[C@@H]12` [Compound 82] here?
Answer: Its EC50 is less than 100 nM.

Question: How did the EC50 turn out when `C=C(C)[C@@H]1CC[C@]2(C(=O)NCc3ccc4c(c3)OCCO4)CC[C@]3(C)[C@H](CC[C@@H]4[C@@]5(C)CC[C@H](OC(=O)CC(C)(C)C(=O)O)C(C)(C)[C@@H]5CC[C@]43C)[C@@H]12` [Compound 84] was run?
Answer: The EC50 was less than 100 nM.

Question: For `C=C(C)[C@@H]1CC[C@]2(C(=O)NCc3ccc4occc4c3)CC[C@]3(C)[C@H](CC[C@@H]4[C@@]5(C)CC[C@H](OC(=O)CC(C)(C)C(=O)O)C(C)(C)[C@@H]5CC[C@]43C)[C@@H]12` [Compound 87], which EC50 is on record?
Answer: The EC50 was less than 100 nM.

Question: Which EC50 does the source give for `C=C(C)[C@@H]1CC[C@]2(C(=O)NCCc3cccc(OC)c3)CC[C@]3(C)[C@H](CC[C@@H]4[C@@]5(C)CC[C@H](OC(=O)CC(C)(C)C(=O)O)C(C)(C)[C@@H]5CC[C@]43C)[C@@H]12` [Compound 88] here?
Answer: The EC50 was less than 100 nM.

Question: Which EC50 does the source give for `C=C(C)[C@@H]1CC[C@]2(C(=O)NCCc3ccncc3)CC[C@]3(C)[C@H](CC[C@@H]4[C@@]5(C)CC[C@H](OC(=O)CC(C)(C)C(=O)O)C(C)(C)[C@@H]5CC[C@]43C)[C@@H]12` [Compound 91] here?
Answer: The EC50 was less than 100 nM.

Question: With `C=C(C)[C@@H]1CC[C@]2(C(=O)NCCc3ccccn3)CC[C@]3(C)[C@H](CC[C@@H]4[C@@]5(C)CC[C@H](OC(=O)CC(C)(C)C(=O)O)C(C)(C)[C@@H]5CC[C@]43C)[C@@H]12` [Compound 92] as the molecule, how does the EC50 read?
Answer: Its EC50 is less than 100 nM.

Question: Which EC50 does the source give for `C=C(C)[C@@H]1CC[C@]2(C(=O)NCCc3cccnc3)CC[C@]3(C)[C@H](CC[C@@H]4[C@@]5(C)CC[C@H](OC(=O)CC(C)(C)C(=O)O)C(C)(C)[C@@H]5CC[C@]43C)[C@@H]12` [Compound 93] here?
Answer: The EC50 was less than 100 nM.

Question: With `C=C(C)[C@@H]1CC[C@]2(C(=O)NCc3cccc4ccccc34)CC[C@]3(C)[C@H](CC[C@@H]4[C@@]5(C)CC[C@H](OC(=O)CC(C)(C)C(=O)O)C(C)(C)[C@@H]5CC[C@]43C)[C@@H]12` [Compound 94] as the molecule, how does the EC50 read?
Answer: Its EC50 is less than 100 nM.

Question: With `C=C(C)[C@@H]1CC[C@]2(C(=O)NCc3ccoc3)CC[C@]3(C)[C@H](CC[C@@H]4[C@@]5(C)CC[C@H](OC(=O)CC(C)(C)C(=O)O)C(C)(C)[C@@H]5CC[C@]43C)[C@@H]12` [Compound 95] as the molecule, how does the EC50 read?
Answer: The EC50 was less than 100 nM.

Question: `C=C(C)[C@@H]1CC[C@]2(C(=O)NCCOc3ccc(OC)cc3)CC[C@]3(C)[C@H](CC[C@@H]4[C@@]5(C)CC[C@H](OC(=O)CC(C)(C)C(=O)O)C(C)(C)[C@@H]5CC[C@]43C)[C@@H]12` [Compound 97] was tested. Which EC50 did it give?
Answer: Its EC50 is less than 100 nM.

Question: Which EC50 does the source give for `C=C(C)[C@@H]1CC[C@]2(C(=O)NCc3ccc(N(C)C)cc3)CC[C@]3(C)[C@H](CC[C@@H]4[C@@]5(C)CC[C@H](OC(=O)CC(C)(C)C(=O)O)C(C)(C)[C@@H]5CC[C@]43C)[C@@H]12` [Compound 99] here?
Answer: Its EC50 is less than 100 nM.

Question: Which EC50 does the source give for `C=C(C)[C@@H]1CC[C@]2(C(=O)NCCc3ccc(C(=O)O)cc3)CC[C@]3(C)[C@H](CC[C@@H]4[C@@]5(C)CC[C@H](OC(=O)CC(C)(C)C(=O)O)C(C)(C)[C@@H]5CC[C@]43C)[C@@H]12` [Compound 100] here?
Answer: Its EC50 is less than 100 nM.

Question: Which EC50 does the source give for `C=C(C)[C@@H]1CC[C@]2(C(=O)NCc3c(C)coc3C(F)(F)F)CC[C@]3(C)[C@H](CC[C@@H]4[C@@]5(C)CC[C@H](OC(=O)CC(C)(C)C(=O)O)C(C)(C)[C@@H]5CC[C@]43C)[C@@H]12` [Compound 101] here?
Answer: Its EC50 is less than 100 nM.

Question: For `C=C(C)[C@@H]1CC[C@]2(C(=O)NCCCc3ccc(OC)c(OC)c3)CC[C@]3(C)[C@H](CC[C@@H]4[C@@]5(C)CC[C@H](OC(=O)CC(C)(C)C(=O)O)C(C)(C)[C@@H]5CC[C@]43C)[C@@H]12` [Compound 102], which EC50 is on record?
Answer: Its EC50 is less than 100 nM.

Question: For `C=C(C)[C@@H]1CC[C@]2(C(=O)NCc3cc(OC)c(OC)c(OC)c3)CC[C@]3(C)[C@H](CC[C@@H]4[C@@]5(C)CC[C@H](OC(=O)CC(C)(C)C(=O)O)C(C)(C)[C@@H]5CC[C@]43C)[C@@H]12` [Compound 103], which EC50 is on record?
Answer: The EC50 was less than 100 nM.

Question: `C=C(C)[C@@H]1CC[C@]2(C(=O)NCCCc3ccc(OC)cc3)CC[C@]3(C)[C@H](CC[C@@H]4[C@@]5(C)CC[C@H](OC(=O)CC(C)(C)C(=O)O)C(C)(C)[C@@H]5CC[C@]43C)[C@@H]12` [Compound 104] was tested. Which EC50 did it give?
Answer: The EC50 was less than 100 nM.

Question: For `C=C(C)[C@@H]1CC[C@]2(C(=O)NC(C)c3ccccn3)CC[C@]3(C)[C@H](CC[C@@H]4[C@@]5(C)CC[C@H](OC(=O)CC(C)(C)C(=O)O)C(C)(C)[C@@H]5CC[C@]43C)[C@@H]12` (some centres unmarked) [Compound 105], which EC50 is on record?
Answer: Its EC50 is less than 100 nM.

Question: How did the EC50 turn out when `C=C(C)[C@@H]1CC[C@]2(C(=O)NCc3nc4ccccc4s3)CC[C@]3(C)[C@H](CC[C@@H]4[C@@]5(C)CC[C@H](OC(=O)CC(C)(C)C(=O)O)C(C)(C)[C@@H]5CC[C@]43C)[C@@H]12` [Compound 106] was run?
Answer: Its EC50 is less than 100 nM.

Question: `C=C(C)[C@@H]1CC[C@]2(C(=O)NCc3cccc(C)n3)CC[C@]3(C)[C@H](CC[C@@H]4[C@@]5(C)CC[C@H](OC(=O)CC(C)(C)C(=O)O)C(C)(C)[C@@H]5CC[C@]43C)[C@@H]12` [Compound 108] was tested. Which EC50 did it give?
Answer: Its EC50 is less than 100 nM.

Question: With `C=C(C)[C@@H]1CC[C@]2(C(=O)NCc3nc4ccccc4n3C)CC[C@]3(C)[C@H](CC[C@@H]4[C@@]5(C)CC[C@H](OC(=O)CC(C)(C)C(=O)O)C(C)(C)[C@@H]5CC[C@]43C)[C@@H]12` [Compound 109] as the molecule, how does the EC50 read?
Answer: The EC50 was less than 100 nM.

Question: For `C=C(C)[C@@H]1CC[C@]2(C(=O)NCc3nc4ccccc4[nH]3)CC[C@]3(C)[C@H](CC[C@@H]4[C@@]5(C)CC[C@H](OC(=O)CC(C)(C)C(=O)O)C(C)(C)[C@@H]5CC[C@]43C)[C@@H]12` [Compound 110], which EC50 is on record?
Answer: Its EC50 is less than 100 nM.

Question: Which EC50 does the source give for `C=C(C)[C@@H]1CC[C@]2(C(=O)NCc3ccc4ccccc4n3)CC[C@]3(C)[C@H](CC[C@@H]4[C@@]5(C)CC[C@H](OC(=O)CC(C)(C)C(=O)O)C(C)(C)[C@@H]5CC[C@]43C)[C@@H]12` [Compound 111] here?
Answer: The EC50 was less than 100 nM.

Question: How did the EC50 turn out when `C=C(C)[C@@H]1CC[C@]2(C(=O)NCc3cc(C)ccn3)CC[C@]3(C)[C@H](CC[C@@H]4[C@@]5(C)CC[C@H](OC(=O)CC(C)(C)C(=O)O)C(C)(C)[C@@H]5CC[C@]43C)[C@@H]12` [Compound 112] was run?
Answer: Its EC50 is less than 100 nM.

Question: `C=C(C)[C@@H]1CC[C@]2(C(=O)NCc3ncccc3C)CC[C@]3(C)[C@H](CC[C@@H]4[C@@]5(C)CC[C@H](OC(=O)CC(C)(C)C(=O)O)C(C)(C)[C@@H]5CC[C@]43C)[C@@H]12` [Compound 113] was tested. Which EC50 did it give?
Answer: Its EC50 is less than 100 nM.

Question: With `C=C(C)[C@@H]1CC[C@]2(C(=O)NCc3ccc(Cl)cn3)CC[C@]3(C)[C@H](CC[C@@H]4[C@@]5(C)CC[C@H](OC(=O)CC(C)(C)C(=O)O)C(C)(C)[C@@H]5CC[C@]43C)[C@@H]12` [Compound 114] as the molecule, how does the EC50 read?
Answer: The EC50 was less than 100 nM.

Question: For `C=C(C)[C@@H]1CC[C@]2(C(=O)NC(Cc3ccccc3)C(=O)O)CC[C@]3(C)[C@H](CC[C@@H]4[C@@]5(C)CC[C@H](OC(=O)CC(C)(C)C(=O)O)C(C)(C)[C@@H]5CC[C@]43C)[C@@H]12` (some centres unmarked) [Compound 115], which EC50 is on record?
Answer: Its EC50 is less than 100 nM.

Question: For `C=C(C)[C@@H]1CC[C@]2(C(=O)N[C@@H](C)c3ccc(OC)cc3)CC[C@]3(C)[C@H](CC[C@@H]4[C@@]5(C)CC[C@H](OC(=O)CC(C)(C)C(=O)O)C(C)(C)[C@@H]5CC[C@]43C)[C@@H]12` [Compound 117], which EC50 is on record?
Answer: The EC50 was less than 100 nM.
